Where two headings read alike, the source gives them in different places.
Assays:
β-receptors of the heart = target: T1, β-receptors of the heart (Felis catus, UniProt Q9TST6); test: Intrinsic activity and β-blockade of heart rate response to isoprenaline in the reserpinized cat; assay type: in vivo; details: for ED50: read-out: β-blockade Heart rate ED50; for Emax: read-out: Intrinsic activity % of isoprenaline heart rate response
T1 construct: Intravenously injected isoprenaline increased the heart rate and reduced the perfusion pressure; from tissue; host or cells: heart of the anaesthetized, reserpinized, vagotomized cat (in vivo)
Method: Alprenolol was used as a reference substance.
(§1) Cats weighing between […] were anaesthetized with 30 mg/kg pentobarbital sodium i.p. The cats had been pretreated with reserpine, 5 mg/kg i.m. about 18 hours before the experiment. Bilateral vagotomy was performed before the start of the experiment.
The heart rate was recorded on an Offner cardiotachometer triggered by the EKG-complex. Mean intraarterial blood pressure was recorded from a carotid artery. The peripheral resistance was measured in one of the legs of the cat in the following way: The femoral artery was opened in the inguinal region and the leg was perfused by blood delivered through a sigma motor pump at constant rate. The flow resistance (the pressure) as recorded via a strain gauge transducer connected to the catheter distally to the pump. The paw was excluded from the circulation by a tight ligature around the ankle. […] An isoprenaline dose giving 70-80% of the maximal chronotropic response was determined. […] Ten minutes before each isoprenaline injection, the tested substances were administered intravenously for two minutes, starting with a dose of 0.01 mg/kg and increasing each subsequent dose fourfold. The intrinsic effects of the test substances were determined. The dose producing 50% blockade of the isoprenaline responses were evaluated from the plotted log dose-per cent blockade diagrams.

[1] = target: T2, peripheral vascular β-receptors (Felis catus, UniProt Q9TST5); test: Peripheral vascular β-blockade (peripheral vascular resistance, vasodilator response to isoprenaline) in the reserpinized cat; assay type: in vivo; details: read-out: β-blockade Peripheral vascular resistance ED50
T2 construct: from tissue; host or cells: vascular bed of the blood-perfused leg (paw excluded) of the anaesthetized, reserpinized cat (in vivo)
Method: The compounds prepared according to examples 1-18 were evaluated for intrinsic activity and blocking effect on heart rate and for peripheral vasodilator response to isoprenaline in the cat. Alprenolol was used as a reference substance.
as §1
The heart rate was recorded on an Offner cardiotachometer triggered by the EKG-complex. Mean intraarterial blood pressure was recorded from a carotid artery. The peripheral resistance was measured in one of the legs of the cat in the following way: The femoral artery was opened in the inguinal region and the leg was perfused by blood delivered through a sigma motor pump at constant rate. The flow resistance (the pressure) as recorded via a strain gauge transducer connected to the catheter distally to the pump. The paw was excluded from the circulation by a tight ligature around the ankle. Intravenously injected isoprenaline increased the heart rate and reduced the perfusion pressure. An isoprenaline dose giving 70-80% of the maximal chronotropic response was determined. This dose (usually 0.1 μg/kg) was then repeated with 20 minute intervals. Ten minutes before each isoprenaline injection, the tested substances were administered intravenously for two minutes, starting with a dose of 0.01 mg/kg and increasing each subsequent dose fourfold. The intrinsic effects of the test substances were determined. The dose producing 50% blockade of the isoprenaline responses were evaluated from the plotted log dose-per cent blockade diagrams.

[2] = reserpinized cat, intravenous, 50% blockade of isoprenaline response (usually 0.1 μg/kg)

T1 sequence (Q9TST6 whole entry, the tested form may be a part): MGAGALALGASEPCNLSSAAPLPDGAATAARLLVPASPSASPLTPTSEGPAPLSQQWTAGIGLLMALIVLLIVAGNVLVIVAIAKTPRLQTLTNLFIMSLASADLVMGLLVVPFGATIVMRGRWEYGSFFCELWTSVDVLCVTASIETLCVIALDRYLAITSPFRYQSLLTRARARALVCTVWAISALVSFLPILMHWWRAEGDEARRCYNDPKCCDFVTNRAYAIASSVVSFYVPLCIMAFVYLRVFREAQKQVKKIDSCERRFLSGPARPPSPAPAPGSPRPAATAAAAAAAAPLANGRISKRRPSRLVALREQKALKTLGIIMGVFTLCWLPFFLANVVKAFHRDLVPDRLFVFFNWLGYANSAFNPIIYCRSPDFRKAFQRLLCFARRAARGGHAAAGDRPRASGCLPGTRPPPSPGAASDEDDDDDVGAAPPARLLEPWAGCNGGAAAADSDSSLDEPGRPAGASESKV
T2 sequence (Q9TST5 whole entry, the tested form may be a part): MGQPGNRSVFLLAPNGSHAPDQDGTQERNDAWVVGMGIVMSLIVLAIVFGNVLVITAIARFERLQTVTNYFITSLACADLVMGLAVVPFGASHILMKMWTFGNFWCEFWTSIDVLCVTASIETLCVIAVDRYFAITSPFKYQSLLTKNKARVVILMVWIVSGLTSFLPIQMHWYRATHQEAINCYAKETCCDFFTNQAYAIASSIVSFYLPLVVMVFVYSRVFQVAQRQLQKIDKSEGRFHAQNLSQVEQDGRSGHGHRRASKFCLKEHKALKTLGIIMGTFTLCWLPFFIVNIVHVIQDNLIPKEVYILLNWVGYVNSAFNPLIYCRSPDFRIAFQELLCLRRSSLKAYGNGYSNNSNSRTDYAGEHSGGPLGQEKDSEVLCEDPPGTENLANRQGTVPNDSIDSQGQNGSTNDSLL

Row | Structure (SMILES) | ED50 [1, 2] [mg/kg] | ED50 (β-receptors of the heart; [2]) [mg/kg] | Emax (β-receptors of the heart; reserpinized cat, intravenous) [%] | ED50 (β-receptors of the heart; cat, iv) [mg/kg] | Emax (β-receptors of the heart; iv) [%] | ED50 ([1]; cat, iv) [mg/kg]
1 | CC(C)NCC(O)COc1ccc(OCCOC(=O)N(C)C)cc1Cl (stereo not shown) [(CH3)2 NCOOC2 H4 O, Cl, 1-Isopropylamino-3-[2-chloro-4-(2-dimethylcarbamoyloxyethoxy)-phenoxy]-propanol-2] | 1.7 | 0.1 | 5 |  |  | 
2 | CNC(=O)OCCOc1ccc(OCC(O)CNC(C)C)cc1 (stereo not shown) [CH3 NHCOOC2 H4 O, H, 1-isopropylamino-3-[4-(2-methylcarbamoyloxyethoxy)-phenoxy]-propanol-2] | > 8.5 | 0.5 | 25 |  |  | 
3 | CNC(=O)OCCc1ccc(OCC(O)CNC(C)C)c(Cl)c1 (stereo not shown) [CH3 NHCOOC2 H4, Cl, 1-Isopropylamino-3-[2-chloro-4-(2-methylcarbamoyloxyethyl)-phenoxy]-propanol-2] | 1.8 | 0.3 | 0 |  |  | 
4 | CC(C)NCC(O)COc1ccc(OCCOC(N)=O)cc1 (stereo not shown) [H2 NCOOC2 H5 O, H, 1-Isopropylamino-3-[4-(2-carbamoyloxyethoxy)-phenoxy]-propanol-2] |  |  |  | 0.4 | 40 | 8
5 | C=CCc1ccccc1OCC(O)CNC(C)C (stereo not shown) [alprenolol, Alprenolol, reference compound] |  |  | 20 |  |  | 

The next lines start with results.

Row | ED50 [1, 2] [mg/kg] | Structure (SMILES) | ED50 (β-receptors of the heart; [2]) [mg/kg] | Emax (β-receptors of the heart; reserpinized cat, intravenous) [%] | ED50 (β-receptors of the heart; cat, iv) [mg/kg] | Emax (β-receptors of the heart; iv) [%] | ED50 ([1]; cat, iv) [mg/kg]
6 | 2.4 | CNC(=O)OCCc1ccc(OCC(O)CNC(C)C)cc1 (stereo not shown) [CH3 NHCOOC2 H4, H, 1-Isopropylamino-3-[4-(2-methylcarbamoyloxyethyl)-phenoxy]-propanol-2] | 0.4 | 0 |  |  | 
7 | 2.6 | CC(C)NCC(O)COc1ccc(CCNC(N)=O)cc1Cl (stereo not shown) [H2 NCONHC2 H4, Cl, 1-Isopropylamino-3-[2-chloro-4-(2-carbamoylaminoethyl)phenoxy]-propanol-2] | 0.4 | 0 |  |  | 
8 | 14 | CC(C)NCC(O)COc1ccc(CCNC(N)=O)cc1 (stereo not shown) [H2 NCONHC2 H4, H] | 0.4 | 0 |  |  | 
